Reference: patent US20230095021A1, “MODULATORS OF TDP-43” (Alteron Therapeutics, Inc., priority 2019, published 2023)

Experiments:
[1] = test system: Phe508del-CFTR; assay: Phe508del-CFTR localization, immunofluorescence microscopy, primary bronchial epithelial cells of a cystic fibrosis patient; format: cell-based, human; conditions: primary bronchial epithelial cells homozygous for Phe508del-CFTR, 4 μM, 3 days
Experimental: MDA-MB-231 and U-87 MG cells were cultured on cover slips under the conditions as described above. Cells were treated with DMSO or 4 μM ALT-59 for 3 days. Primary human bronchial epithelial cells isolated from cystic fibrosis patient homozygous for Phe508del-CFTR (Lifeline Cell Technology) were cultured on cover slips in BronchiaLife Cell Culture Medium supplemented with BrochiaLife LifeFactors Kit (Lifeline Cell Technology) and maintained at 37° C. in a CO2 incubator. Cells were treated with DMSO, 4 μM ALT-59, 2 μM ALT-308, or 4 μM ALT-410 for 3 days.
Cells were fixed in 4% paraformaldehyde for 15 minutes and permeabilized in 0.1% Triton X-100 for 2 minutes. After being blocked in 5% BSA (Sigma-Aldrich), cells were incubated with anti-CFTR antibody (Alomone Labs) followed by Alexa Fluor 488 anti-rabbit secondary antibody. Reagents were buffered in GIBCO PBS (Phosphate-Buffered Saline). Images were taken using Carl Zeiss LSM 510 Laser Scanning Microscope. Parameters were set identical for all images.

[2] = test system: BACE1; assay: Screening for ALT-59 derivatives with BACE1 protein levels as indicator, U-87 MG cells; format: cell-based; conditions: 2 days, concentrations as indicated in FIGS. 15-17
Experimental: Additional experiments were performed to screen for compounds with higher potency and the ability to penetrate blood brain barrier using BACE1 protein levels as an indicator. U-87 MG cells were cultured as described previously and treated for 2 days with compounds at concentrations as indicated in FIGS. 15-17. Cells were then subjected to Western blotting analysis using anti-BACE1 and anti-beta-actin antibodies.

## CCCOc1ccc(C2Nc3ccc4ccccc4c3C3=C2C(=O)CCC3)cc1 (centres unmarked) [ALT-410, 5-(4-propoxyphenyl)-2,3,5,6-tetrahydrobenzo[a]phenanthridin-4(1H)-one]
[1]
  localization of Phe508del-CFTR on the plasma membrane: increased localization of Phe508del-CFTR on the plasma membrane
[2]
  BACE1 protein expression: capable of lowering BACE1 expression
